{"source": "patent US20090181910A1", "about": "“METHOD OF PREVENTION AND ALLEVIATION OF TOXICITY BY MODULATION OF IRF3” (priority 2006, published 2009)", "test_system": "CRBPII", "test": "RAW 264.7 Q-PCR: CRBPII", "assay_type": "cell-based, murine", "details": "RXRα overexpressing RAW 264.7 cells; FIG. 10d", "data": [{"substance": "polyinosinic:polycytidylic acid [polyI:C]", "values": [{"measurement": "LG268 induced CRBPII", "result": "unable to repress LG268 induced CRBPII"}]}]}
